Key:
[1] = target: T1, P70S6K (T412E mutant, Millipore) (Homo sapiens, UniProt P23443, T412E); assay: P70S6K enzyme assay; format: biochemical; conditions: enzyme inhibition; 24 μM ATP, 90 min at 25° C., Caliper mobility shift
T1 construct: purchased Millipore
Description: (§1) The IC50 values reported for the compounds in the Experimental section were derived from the following protocol for the p70S6K and AKT enzyme assays.
P70S6K inhibitor compounds were diluted and plated in 96 well plates. A reaction mixture including the following components was then added to the compound plate to initiate the enzyme reaction; P70S6K (3 nM, T412E mutant, Millipore) was mixed with 24 μM ATP in an assay buffer containing 100 mM Hepes (pH 7.5), 5 mM MgCl2, 1 mM DTT, 0.015% Brij and 1 μM of the substrate peptide FITC-AHA-AKRRRLSSLRA-OH (derived from the S6 ribosomal protein sequence, FITC=fluorescein isothiocyanate, AHA=6-aminohexanoic acid). The reaction was incubated for 90 min at 25° C., before the addition of 10 mM EDTA to stop the reaction. The proportion of substrate and product (phosphorylated) peptide was analysed on a Caliper Life Sciences Lab Chip 3000, using a pressure of −1.4 psi, and upstream and downstream voltages of −3000 and −700 respectively. Product peaks were resolved before substrate peaks on the resulting chromatograms.

His-AKT (Full Length) = target: T2, His-AKT (Full Length) (Homo sapiens, UniProt P31749); assay: AKT enzyme assay; format: biochemical; conditions: enzyme inhibition; 160 uM ATP, 90 min at 25° C., Caliper mobility shift
T2 construct: 0.1 ng/μl His-AKT (Full Length); His; purchased Invitrogen P2999
T2 sequence (P31749 whole entry): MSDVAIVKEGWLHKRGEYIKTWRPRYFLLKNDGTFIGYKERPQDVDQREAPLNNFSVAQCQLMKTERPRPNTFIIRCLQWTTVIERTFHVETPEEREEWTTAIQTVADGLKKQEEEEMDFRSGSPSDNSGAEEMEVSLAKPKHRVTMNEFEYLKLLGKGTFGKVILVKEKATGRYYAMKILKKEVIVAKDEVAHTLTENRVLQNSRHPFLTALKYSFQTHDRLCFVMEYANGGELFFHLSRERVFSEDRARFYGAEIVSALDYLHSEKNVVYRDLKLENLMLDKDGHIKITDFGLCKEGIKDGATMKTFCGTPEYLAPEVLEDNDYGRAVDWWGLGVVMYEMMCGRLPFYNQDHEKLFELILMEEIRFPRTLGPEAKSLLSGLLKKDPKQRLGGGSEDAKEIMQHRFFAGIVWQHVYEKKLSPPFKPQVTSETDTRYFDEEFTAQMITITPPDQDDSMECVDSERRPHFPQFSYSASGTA
Description: as §1
A TTP Mosquito liquid handling instrument was used to place 125 nl of the appropriate concentration of inhibitor in 100% DMSO (for a dose response curve calculation) into each well of a 384-well plate. To this reaction components were added to a final volume of 12.5 μl: • 0.1 ng/μl His-AKT (Full Length), (Invitrogen, Part # P2999, Lot # 641228C). • 160 uM ATP (Fluke, 02055) • 1 mM DTT (Sigma, D0632) • 1 mM MgCl2 (Sigma, M1028) • 1 μM substrate peptide (sequence FITC-AHA-GRPRTSSFAEG-NH2), synthesized by Tufts Peptide Synthesis service. • 100 mM HEPES pH 7.5 (Calbiochem, 391338) • 0.015% Brij-35 (Sigma, B4184)
The reaction was incubated for 90 min at 25° C., and then stopped by the addition of 70 μl of Stop buffer (100 mM HEPES pH 7.5, 0.015% Brij-35, 10 mM EDTA (Sigma, E7889)).
The plate was read on a Caliper LC 3000 in an Off-Chip mobility shift assay format, using the following parameters for a 12-sipper chip: screening pressure −2.3 psi, upstream voltage −500, and downstream voltage −3000. These conditions caused unphosphorylated substrate and phosphorylated product peptide to resolve as separate peaks allowing direct measurement of percentage of conversion of substrate to product. The percent conversion was plotted against concentration of inhibitor to produce a sigmoidal dose response curve, from which an IC50 was calculated.

T1 sequence (P23443 whole entry T412E): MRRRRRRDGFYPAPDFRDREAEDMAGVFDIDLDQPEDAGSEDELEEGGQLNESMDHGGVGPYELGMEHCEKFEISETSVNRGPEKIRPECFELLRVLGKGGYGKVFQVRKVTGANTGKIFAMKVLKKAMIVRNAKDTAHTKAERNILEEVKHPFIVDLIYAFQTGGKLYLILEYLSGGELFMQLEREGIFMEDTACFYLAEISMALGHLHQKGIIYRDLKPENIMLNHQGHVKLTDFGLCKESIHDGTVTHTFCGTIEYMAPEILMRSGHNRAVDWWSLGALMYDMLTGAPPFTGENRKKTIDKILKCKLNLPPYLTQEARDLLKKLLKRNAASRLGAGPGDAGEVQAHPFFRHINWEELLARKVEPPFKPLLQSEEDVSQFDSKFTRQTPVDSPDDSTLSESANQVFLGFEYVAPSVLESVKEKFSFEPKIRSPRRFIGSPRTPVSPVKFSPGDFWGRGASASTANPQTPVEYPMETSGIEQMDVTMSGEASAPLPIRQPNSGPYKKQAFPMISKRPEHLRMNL

IC50 [1] | IC50 (His-AKT (Full Length)) | Compound
< 25 nM | < 25 nM | Fc1ccc(-c2cn(CCN3CCC3)c(C3CCN(c4ncnc5c4CCN5)CC3)n2)cc1C(F)(F)F [Compound A28, 4-{4-[1-(2-Azetidin-1-yl-ethyl)-4-(4-fluoro-3-trifluoromethyl-phenyl)-1H-imidazol-2-yl]-piperidin-1-yl}-6,7-dihydro-5H-pyrrolo[2,3-d]pyrimidine]
< 25 nM | < 25 nM | Cc1cc(-c2cn(CCN3CCC3)c(C3CCN(c4ncnc5c4CCN5)CC3)n2)ccc1F [Compound A29, 4-{4-[1-(2-Azetidin-1-yl-ethyl)-4-(4-fluoro-3-methyl-phenyl)-1H-imidazol-2-yl]-piperidin-1-yl}-6,7-dihydro-5H-pyrrolo[2,3-d]pyrimidine]
< 25 nM | < 25 nM | FC(F)(F)c1cc(-c2cn(CCN3CCC3)c(C3CCN(c4ncnc5c4CCN5)CC3)n2)ccn1 [Compound A30, 4-{4-[1-(2-Azetidin-1-yl-ethyl)-4-(2-trifluoromethyl-pyridin-4-yl)-1H-imidazol-2-yl]-piperidin-1-yl}-6,7-dihydro-5H-pyrrolo[2,3-d]pyrimidine]
< 25 nM | < 25 nM | Fc1ccc(-c2cn(CCN3CCC3)c(C3CCN(c4ncnc5c4CCN5)CC3)n2)cc1Cl [Compound A31, 4-{4-[1-(2-Azetidin-1-yl-ethyl)-4-(3-chloro-4-fluoro-phenyl)-1H-imidazol-2-yl]-piperidin-1-yl}-6,7-dihydro-5H-pyrrolo[2,3-d]pyrimidine]
< 25 nM | < 25 nM | CN(C)CCn1cc(-c2ccc(F)c(C(F)(F)F)c2)nc1C1CCN(c2ncnc3c2CCCN3)CC1 [Compound A32, (2-{4-(4-Fluoro-3-trifluoromethyl-phenyl)-2-[1-(5,6,7,8-tetrahydro-pyrido[2,3-d]pyrimidin-4-yl)-piperidin-4-yl]-imidazol-1-yl}-ethyl)-dimethylamine]
< 25 nM | < 25 nM | Fc1ccc(-c2cn(CCN3CCC3)c(C3CCN(c4ncnc5c4CCCN5)CC3)n2)cc1C(F)(F)F [Compound A37, 4-{4-[1-(2-Azetidin-1-yl-ethyl)-4-(4-fluoro-3-trifluoromethyl-phenyl)-1H-imidazol-2-yl]-piperidin-1-yl}-5,6,7,8-tetrahydro-pyrido[2,3-d]pyrimidine]
< 25 nM | < 25 nM | Fc1ccc(-c2cn(CCN3CCC3)c(C3CCN(c4ncnc5c4CCCN5)CC3)n2)cc1Cl [Compound A38, 4-{4-[1-(2-Azetidin-1-yl-ethyl)-4-(3-chloro-4-fluoro-phenyl)-1H-imidazol-2-yl]-piperidin-1-yl}-5,6,7,8-tetrahydro-pyrido[2,3-d]pyrimidine]
< 25 nM | < 25 nM | O=C1CNc2ncnc(N3CCC(c4nc(-c5ccc(F)c(C(F)(F)F)c5)cn4CCN4CCC4)CC3)c2N1 [Compound A40, 4-{4-[4-(4-fluoro-3-trifluoromethyl-phenyl)-1-(2-azetidin-1-yl-ethyl)-1H-imidazol-2-yl]-piperidin-1-yl}-7,8-dihydro-5H-pteridin-6-one]

The remaining lines, values behind:

Compound | IC50 [1] | IC50 (His-AKT (Full Length))
COc1cc(-c2cn(CCN(C)C)c(C3CCN(c4ncnc5c4CCN5)CC3)n2)ccc1F [Compound A25, {2-[2-[1-(6,7-Dihydro-5H-pyrrolo[2,3-d]pyrimidin-4-yl)-piperidin-4-yl]-4-(4-fluoro-3-methoxy-phenyl)-imidazol-1-yl]-ethyl}-dimethylamine] | < 25 nM | < 25 nM
CN(C)CCn1cc(-c2ccc(F)c(Cl)c2)nc1C1CCN(c2ncnc3c2CCN3)CC1 [Compound A26, (2-{4-(3-Chloro-4-fluoro-phenyl)-2-[1-(6,7-dihydro-5H-pyrrolo[2,3-d]pyrimidin-4-yl)-piperidin-4-yl]-imidazol-1-yl}-ethyl)-dimethylamine] | < 25 nM | < 25 nM
CN(C)CCn1cc(-c2ccnc(C(F)(F)F)c2)nc1C1CCN(c2ncnc3c2CCN3)CC1 [Compound A27, {2-[2-[1-(6,7-Dihydro-5H-pyrrolo[2,3-d]pyrimidin-4-yl)-piperidin-4-yl]-4-(2-trifluoromethyl-pyridin-4-yl)-imidazol-1-yl]-ethyl}-dimethylamine] | < 25 nM | 26 to 100 nM
Cc1cc(-c2cn(CCN(C)C)c(C3CCN(c4ncnc5c4CCCN5)CC3)n2)ccc1F [Compound A33, (2-{4-(4-Fluoro-3-methyl-phenyl)-2-[1-(5,6,7,8-tetrahydro-pyrido[2,3-d]pyrimidin-4-yl)-piperidin-4-yl]-imidazol-1-yl}-ethyl)-dimethylamine] | < 25 nM | < 25 nM
COc1cc(-c2cn(CCN(C)C)c(C3CCN(c4ncnc5c4CCCN5)CC3)n2)ccc1F [Compound A34, (2-{4-(4-Fluoro-3-methoxy-phenyl)-2-[1-(5,6,7,8-tetrahydro-pyrido[2,3-d]pyrimidin-4-yl)-piperidin-4-yl]-imidazol-1-yl}-ethyl)-dimethylamine] | < 25 nM | < 25 nM
CN(C)CCn1cc(-c2ccc(F)c(Cl)c2)nc1C1CCN(c2ncnc3c2CCCN3)CC1 [Compound A35, (2-{4-(3-Chloro-4-fluoro-phenyl)-2-[1-(5,6,7,8-tetrahydro-pyrido[2,3-d]pyrimidin-4-yl)-piperidin-4-yl]-imidazol-1-yl}-ethyl)-dimethylamine] | < 25 nM | < 25 nM
CN(C)CCn1cc(-c2ccnc(C(F)(F)F)c2)nc1C1CCN(c2ncnc3c2CCCN3)CC1 [Compound A36, Dimethyl-{2-[2-[1-(5,6,7,8-tetrahydro-pyrido[2,3-d]pyrimidin-4-yl)-piperidin-4-yl]-4-(2-trifluoromethyl-pyridin-4-yl)-imidazol-1-yl]-ethyl}-amine] | < 25 nM | < 25 nM
O=C1CNc2ncnc(N3CCC(c4nc(-c5ccc(F)c(C(F)(F)F)c5)cn4CCN4CCCC4)CC3)c2N1 [Compound A39, 4-{4-[4-(4-fluoro-3-trifluoromethyl-phenyl)-1-(2-pyrrolidin-1-yl-ethyl)-1H-imidazol-2-yl]-piperidin-1-yl}-7,8-dihydro-5H-pteridin-6-one] | < 25 nM | < 25 nM
CN(C)CCn1cc(-c2ccc(F)c(C(F)(F)F)c2)nc1C1CCN(c2ncnc3c2NC(=O)CN3)CC1 [Compound A41, 4-{4-[4-(4-fluoro-3-trifluoromethyl-phenyl)-1-(2-dimethyamine-1-yl-ethyl)-1H-imidazol-2-yl]-piperidin-1-yl}-7,8-dihydro-5H-pteridin-6-one] | < 25 nM | < 25 nM
Cc1cc(-c2cn(CCN3CCC3)c(C3CCN(c4ncnc5c4NC(=O)CN5)CC3)n2)ccc1F [Compound A42, 4-{4-[4-(4-fluoro-3-methyl-phenyl)-1-(2-azetidin-1-yl-ethyl)-1H-imidazol-2-yl]-piperidin-1-yl}-7,8-dihydro-5H-pteridin-6-one] | < 25 nM | 26 to 100 nM
O=C1CNc2ncnc(N3CCC(c4nc(-c5ccnc(C(F)(F)F)c5)cn4CCN4CCC4)CC3)c2N1 [Compound A43, 4-{4-[1-(2-azetidin-1-yl-ethyl)-4-(2-trifluoromethyl-pyridin-4-yl)-1H-imidazol-2-yl]-piperidin-1-yl}-7,8-dihydro-5H-pteridin-6-one] | < 25 nM | 26 to 100 nM
O=C1CNc2ncnc(N3CCC(c4nc(-c5ccnc(C6CC6)c5)cn4CCN4CCC4)CC3)c2N1 [Compound A44, 4-{4-[1-(2-azetidin-1-yl-ethyl)-4-(2-cyclopropyl-pyridin-4-yl)-1H-imidazol-2-yl]-piperidin-1-yl}-7,8-dihydro-5H-pteridin-6-one] | < 25 nM | 101 to 500 nM
O=C1CNc2ncnc(N3CCC(c4nc(-c5ccccc5)cn4CCN4CCCC4)CC3)c2N1 [Compound A45, 4-{4-[4-Phenyl-1-(2-pyrrolidin-1-yl-ethyl)-1H-imidazol-2-yl]-piperidin-1-yl}-7,8-dihydro-5H-pteridin-6-one] | 101 to 500 nM | 501 to 1000 nM
CN(C)CCn1cc(-c2ccc(F)c(F)c2)nc1C1CCN(c2ncnc3c2NC(=O)CN3)CC1 [Compound A46, 4-{4-[4-(3,4-DifluoroPhenyl)-1-(2-dimethylamin-1-yl-ethyl)-1H-imidazol-2-yl]-piperidin-1-yl}-7,8-dihydro-5H-pteridin-6-one] | 26 to 100 nM | 101 to 500 nM

Source: US9315517B2, “Imidazol-piperidinyl derivatives as modulators of kinase activity” (Merck Patent GmbH, priority 2012, dated 2016)
